Biological target: T1, FGFR1-GST (Homo sapiens, UniProt P11362)
T1 construct: GST; made in house
Experiment: FGFR-1 TR-FRET biochemical assay
Outline: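 LANCE TR-FRET with 5 nM FGFR1-GST, 0.6 uM ATP, 25 nM biotin-poly GT in HEPES pH 7.5/MgCl2, 1% DMSO; compound added before enzyme, 1 h at room temperature. 665/615 nm ratio, background without ATP; % inhibition over 10 μM–0.128 nM final for IC50.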

T1 sequence (P11362 22-822): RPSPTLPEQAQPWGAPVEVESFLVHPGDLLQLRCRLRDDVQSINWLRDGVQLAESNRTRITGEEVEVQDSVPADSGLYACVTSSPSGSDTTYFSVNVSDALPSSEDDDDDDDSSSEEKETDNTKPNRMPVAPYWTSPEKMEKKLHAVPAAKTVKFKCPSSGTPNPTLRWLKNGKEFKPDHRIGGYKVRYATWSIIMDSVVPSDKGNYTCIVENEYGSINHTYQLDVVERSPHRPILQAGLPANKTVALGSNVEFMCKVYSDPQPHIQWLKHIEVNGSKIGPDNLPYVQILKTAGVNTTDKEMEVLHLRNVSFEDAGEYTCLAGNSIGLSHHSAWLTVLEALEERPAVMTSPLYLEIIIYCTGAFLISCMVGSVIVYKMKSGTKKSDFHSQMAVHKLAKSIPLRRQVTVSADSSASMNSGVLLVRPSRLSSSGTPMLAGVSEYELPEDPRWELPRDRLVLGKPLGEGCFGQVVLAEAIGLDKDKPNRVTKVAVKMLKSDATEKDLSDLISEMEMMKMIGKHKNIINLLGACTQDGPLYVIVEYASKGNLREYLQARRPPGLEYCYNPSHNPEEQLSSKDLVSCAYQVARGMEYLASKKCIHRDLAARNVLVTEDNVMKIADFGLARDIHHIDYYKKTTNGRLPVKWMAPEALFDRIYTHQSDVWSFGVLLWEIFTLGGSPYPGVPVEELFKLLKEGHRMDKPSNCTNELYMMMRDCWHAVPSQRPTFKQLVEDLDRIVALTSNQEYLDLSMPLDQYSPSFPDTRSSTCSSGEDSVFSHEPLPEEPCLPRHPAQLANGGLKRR

Structure (SMILES)	IC50 (bounds given in nM)	IC50 (upper bound in μM)
CCOC(=O)c1c(-c2ccc(NC(=O)Nc3cc(C(F)(F)F)ccn3)cc2)c2c(N)ncnn2c1-c1ccc(OC)cc1 [Example 4, ethyl 4-amino-7-(4-methoxyphenyl)-5-{4-[({[4-(trifluoromethyl)pyridin-2-yl]amino}carbonyl)amino]-phenyl}pyrrolo[2,1-f][1,2,4]triazine-6-carboxylate]	10 to 100 nM	–
N#CCc1c(-c2ccc(NC(=O)Nc3cc(C(F)(F)F)ccc3Cl)c(F)c2)c2c(N)ncnn2c1CN1CCS(=O)(=O)CC1 [Example 83, N-(4-{4-amino-6-(cyanomethyl)-7-[(1,1-dioxidothiomorpholin-4-yl)methyl]pyrrolo[2,1-f][1,2,4]triazin-5-yl}-2-fluorophenyl)-N′-[2-chloro-5-(trifluoromethyl)phenyl]urea]	< 10 nM	–
COCc1c(-c2ccc(NC(=O)Nc3cc(C(F)(F)F)ccn3)c(C)c2)c2c(N)ncnn2c1CN1CCOCC1 [Example 145, N-4-[4-amino-6-(methoxymethyl)-7-(morpholin-4-ylmethyl)pyrrolo[2,1-f][1,2,4]triazin-5-yl]-2-methylphenyl-N′-[4-(trifluoromethyl)pyridin-2-yl]urea]	< 10 nM	–
COCCNCc1c(-c2ccc(NC(=O)Nc3cc(C(F)(F)F)ccc3F)cc2)c2c(N)ncnn2c1CN1CCOCC1 [Example 108, N-4-[4-amino-6-[(2-methoxyethyl)amino]methyl-7-(morpholin-4-ylmethyl)pyrrolo[2,1-f][1,2,4]triazin-5-yl]phenyl-N′-[2-fluoro-5-(trifluoromethyl)phenyl]urea]	> 100 nM	< 1000 nM
CNCc1c(-c2ccc(NC(=O)Nc3cc(C(F)(F)F)ccc3F)cc2)c2c(N)ncnn2c1CN1CCOCC1 [Example 109, N-4-[4-amino-6-[(methylamino)methyl]-7-(morpholin-4-ylmethyl)pyrrolo[2,1-f][1,2,4]triazin-5-yl]phenyl-N′-[2-fluoro-5-(trifluoromethyl)phenyl]urea]	10 to 100 nM	–
COCc1c(-c2ccc(NC(=O)Nc3cc(C(F)(F)F)ccc3F)c(F)c2)c2c(N)ncnn2c1CN1CCOC(CO)C1 (centres unmarked) [Example 47, N-{4-[4-amino-7-{[2-(hydroxymethyl)morpholin-4-yl]methyl}-6-(methoxymethyl)pyrrolo[2,1-f][1,2,4]triazin-5-yl]-2-fluorophenyl}-N′-[2-fluoro-5-(trifluoromethyl)-phenyl]urea]	10 to 100 nM	–
COCc1c(-c2ccc(NC(=O)Nc3cc(C(F)(F)F)ccc3Cl)c(F)c2)c2c(N)ncnn2c1CN1CCOCC1 [Example 142, N-{4-[4-amino-6-(methoxymethyl)-7-(morpholin-4-ylmethyl)-pyrrolo[2,1-f][1,2,4]triazin-5-yl]-2-fluorophenyl}-N′-[2-chloro-5-(trifluoromethyl)phenyl]urea]	10 to 100 nM	–
CN1CCN(Cc2c(-c3cnco3)c(-c3ccc(NC(=O)Nc4cc(C(F)(F)F)ccc4F)cc3)c3c(N)ncnn23)CC1 [Example 31, N-4-[4-amino-7-[(4-methylpiperazin-1-yl)methyl]-6-(1,3-oxazol-5-yl)pyrrolo[2,1-f][1,2,4]triazin-5-yl]phenyl-N′-[2-fluoro-5-(trifluoromethyl)phenyl]urea]	< 10 nM	–
Nc1ncnn2c(CN3CCOCC3)c(Cl)c(-c3ccc(NC(=O)Nc4cc(C(F)(F)F)ccc4Cl)c(F)c3)c12 [Example 159, N-{4-[4-amino-6-chloro-7-(morpholin-4-ylmethyl)pyrrolo[2,1-f][1,2,4]triazin-5-yl]-2-fluorophenyl}-N′-[2-chloro-5-(trifluoromethyl)-phenyl]urea]	10 to 100 nM	–
Nc1ncnn2c(CN3CCOCC3)c(C(O)C3CC3)c(-c3ccc(NC(=O)Nc4cc(C(F)(F)F)ccc4F)cc3)c12 (centres unmarked) [Example 106, N-4-[4-amino-6-[cyclopropyl(hydroxy)methyl]-7-(morpholin-4-ylmethyl)pyrrolo[2,1-f][1,2,4]triazin-5-yl]phenyl-N′-[2-fluoro-5-(trifluoromethyl)phenyl]urea]	10 to 100 nM	–

From patent US8829185B2 (Bayer HealthCare LLC, priority 2005, dated 2014)
